Source: ChEMBL document CHEMBL1158236, “Two new naphthoquinones with antiviral activity from Rhinacanthus nasutus” (J Nat Prod, 1996)
Values after ≈ are worked out from the molar mass of the structure shown.

Key:
Assay type in all cases: functional, organism-based
[1] = system: Influenza A virus; assay: Antiviral activity against influenza A virus by hemadsorption inhibition assay
[2] = system: Human betaherpesvirus 5; assay: Antiviral activity against human cytomegalovirus by plaque-neutralization assay
[3] = system: Murid betaherpesvirus 1; assay: Antiviral activity against mouse cytomegalovirus assessed as effect on virus-induced cytopathic effect
[4] = system: Murid betaherpesvirus 1; assay: Antiviral activity against mouse cytomegalovirus by plaque-neutralization assay
[5] = system: Respiratory syncytial virus; assay: Antiviral activity against respiratory syncytial virus assessed as effect on virus-induced cytopathic effect; conditions: human respiratory syncytial virus
[6] = system: Human alphaherpesvirus 2; assay: Antiviral activity against herpes simplex virus type 2 assessed as effect on virus-induced cytopathic effect

Structure (SMILES)	EC50 [2]	EC50 [3]	EC50 [4]	other results
NC12CC3CC(CC(C3)C1)C2 [AMANTADINE]	–	–	–	EC50 [1]: 0.054 µg/mL (≈ 0.357 µM)
Nc1nc2c(ncn2COC(CO)CO)c(=O)[nH]1 [GANCICLOVIR]	3.4 µg/mL (≈ 13.3 µM)	5 µg/mL (≈ 19.6 µM)	13.8 µg/mL (≈ 54.1 µM)	–
C/C=C(\C)CC/C=C(\C)C(=O)OCC(C)(C)CC1=C(O)C(=O)c2ccccc2C1=O [RHINACANTHIN C]	0.02 µg/mL (≈ 0.0487 µM)	1.1 µg/mL (≈ 2.68 µM)	0.57 µg/mL (≈ 1.39 µM)	–
NC(=O)c1ncn([C@@H]2O[C@H](CO)[C@@H](O)[C@H]2O)n1 [RIBAVIRIN]	–	–	–	EC50 [5]: 1.8 µg/mL (≈ 7.37 µM)
Nc1nc2c(ncn2COCCO)c(=O)[nH]1 [ACYCLOVIR]	–	–	–	EC50 [6]: 2.3 µg/mL (≈ 10.2 µM)
CC(C)(COC(=O)c1ccc2c(c1)OCO2)CC1=C(O)C(=O)c2ccccc2C1=O	0.22 µg/mL (≈ 0.539 µM)	9.5 µg/mL (≈ 23.3 µM)	9.5 µg/mL (≈ 23.3 µM)	–
